Data set [1] deals with adhesion of Treg and Teff to fibronectin. The protocol:
(§1) One of the main features of T cells is their ability to migrate to tissues in need of rescue or repair [such as diseased or damaged CNS (Hickey, 1999; Flugel et al., 2001). […] We therefore incubated Treg with dopamine for 2 h and then examined their adhesion to chondroitin sulfate proteoglycans (CSPG), extracellular matrix proteins often associated with injured tissues (Jones et al., 2003).

The subject of the next data set is IL-10 production by Treg. The following applies: 10^−5 M; 24 h, 48 h and 72 h. The protocol: (x) Enzyme-linked immunosorbent assay. Treg or Teff (0.5×10^6 cells/ml) were cultured for 48 h in the presence of anti-CD3 and anti-CD28. After 48 h the cells were centrifuged and their supernatants were collected and sampled. Concentrations of IL-2 in the samples were determined by the use of sandwich enzyme-linked immunosorbent assay (ELISA) kits (R&D Systems, Minneapolis, Minn.). For detection of secreted IL-10 cells were centrifuged every 24 h and replaced with a fresh medium. Supernatants obtained from cells after 24, 48 and 72 h in culture were subjected to ELISA kit (Diaclone Research, Fleming, France). The plates were developed using a 3,3′,5,5′-tetramethyl-benzidine liquid substrate system (Sigma, St. Louis, Mo.). The reaction was stopped by adding 1M H3PO4. Results for each experiment were calculated as the amount of secreted cytokine per 1 ml of sample, after subtraction of the background levels of the medium.

Data set [2] relates to mice, glutamate-induced retinal ganglion cell death. Description: Intravitreal glutamate toxicity, retinal ganglion cell survival. Type of data set: in vivo, mouse. The protocol:
(iii) Intravitreal glutamate injection. The right eyes of anesthetized mice were punctured with a 27-gauge needle in the upper part of the sclera, and a 10-μL Hamilton syringe with a 30-gauge needle was inserted as far as the vitreal body. A total volume of 1 μl, of L-glutamate (400 nmol) dissolved in saline was injected into the eye.
(iv) Retrograde labeling of retinal ganglion cells. Mice were anesthetized and placed in a stereotactic device. The skull was exposed and kept dry and clean. The bregma was identified and marked. The designated point of injection was at a depth of 2 mm from the brain surface, 2.92 mm behind the bregma in the anteroposterior axis and 0.5 mm lateral to the midline. A window was drilled in the scalp above the designated coordinates in the right and left hemispheres. The neurotracer dye FluoroGold (5% solution in saline; Fluorochrome, Denver, Colo.) was applied (1 μL, at a rate of 0.5 μL/min in each hemisphere) using a Hamilton syringe, and the skin over the wound was sutured.
(xxi) Assessment of mouse retinal ganglion cell survival. Mice were given a lethal dose of pentobarbitone (170 mg/kg). Their eyes were enucleated and the retinas were detached and prepared as flattened whole mounts in 4% paraformaldehyde solution. Labeled cells from 4-6 selected fields of identical size (0.7 mm^2) were counted. The selected fields were located at approximately the same distance from the optic disk (0.3 mm) to overcome the variation in RGC density as a function of distance from the optic disk. Fields were counted under the fluorescence microscope (magnification ×800) by observers blinded to the identity of the retinas. The average number of RGCs per field in each retina was calculated.
Injection of glutamate into the eyes of adult mice causes retinal ganglion cell death that is measurable 1 week after the injection (Mizrahi et al., 2002; Schori et al., 2001a; Katayama et al., 1990). We injected Balb/c mice intraperitoneally (i.p.) with the dopamine, or its specific D1-type agonist SKF-38393 (3.3 mg/kg), or its specific D1-type antagonist SCH-23390 (3 mg/kg), immediately after their exposure to glutamate toxicity. We also injected SCID Balb/c mice with SKF-38393 (3.3 mg/kg) immediately after glutamate intoxication.
Immediately after glutamate intoxication mice were systemically injected with the indicated drugs. Neuronal survival was determined ten days later (see Materials and Methods). The results are expressed by changes (in percentage) in neuronal survival in treated mice relative to untreated mice. Each value represents a mean±SEM of a group of at least 5 animals, and each experiment was performed at least twice, independently. Asterisks (***, P<0.001; **, P<0.01) indicate statistical significance of the presented data from a single experiment using a Student's T-test statistical analysis. (NT—not tested; ns—no statistical significance).

The subject of the next data set is Treg. Description: Treg apoptosis (propidium iodide sub-G1, annexin V, FACS). Format: cell-based, mouse. On the procedure:
(viii) FACS analysis of annexin V-positive regulatory T cells. PE-stained CD25^+ cells were stained for annexin V-FITC according to the manufacturer's instructions. The cells were scored as described above, and CD25^+ lymphocytes were then gated for analysis of annexin V-positive cells.
(xv) Propidium iodide staining. Cells were fixed in cold ethanol 80% and treated with RNAse. Propidium iodide was then applied, and cell samples were assessed by FACSort.

Data set [3] concerns adhesion of Treg and Teff to chondroitin sulfate proteoglycans (CSPG). Description: T cell adhesion to CSPG. Type of data set: cell-based, mouse. The protocol:
(xiii) T cell adhesion. Adhesion of activated CD4^+CD25^+ and CD4^+CD25^− T cells to CSPG was analyzed as previously described (23). Briefly, flat-bottomed microtiter (96-well) plates were pre-coated with CSPG (1 μg/well, 40 min, 37° C.). ^51Cr-labeled T cells were left untreated or were pre-incubated (30 min, 37° C.) with dopamine or the specified agonist or antagonist (10^−5M). The cells (10^5 cells in 100 μL of RPMI containing 0.1% BSA) were then added to the CSPG-coated wells, incubated (30 min, 37° C.), and washed. Adherent cells were lysed and the resulting supernatants were removed and counted in a γ-counter. Results were expressed as the mean percentage of the total population before adhesion of bound T cells from quadruplicate wells for each experimental group.
as §1
To verify that the effect of dopamine on adhesion of Treg is exerted through the ERK1/2 pathway, we incubated Treg with the ERK1/2 signaling pathway inhibitor PD98059 before carrying out the adhesion assay. […] Since interaction of T cells with CSPG is mediated in part by the CD44 receptor (Henke et al., 1996), and in light of the known dependence of CD44 expression on the ERK signaling pathway, it was conceivable that dopamine might affect the expression of CD44 in Treg.

The structures appear in SMILES notation. Marks after values point to notes of the source that are not given here.

Consider `NCCc1ccc(O)c(O)c1` [dopamine, 3,4-dihydroxyphenethylamine], for which, in data set [1], the “Adhesion of Teff to fibronectin” value is recorded as “slight increase” and the “Adhesion of Treg to fibronectin” value was “no effect”. Besides, in the data set on IL-10 production by Treg, the “Amount of IL-10 in media of Treg” value is given as “significant decrease”. Moreover, the “Increase in neuronal survival relative to PBS-treated glutamate-injected controls” value in data set [2] (Balb/c, single i.p. injection, dopamine 0.4 mg/kg, SKF-38393 3.3 mg/kg) worked out at 18±2.5%. Moreover, the “Changes in neuronal survival in treated relative to untreated mice (mean±SEM)” value in data set [2] (Wild type mice, systemic injection immediately after glutamate intoxication) is listed as 18 ± 2.5*** percentage. Besides, in the data set with Treg (Treg incubated with compound), the “Apoptosis, annexin V staining for phosphatidylserine” value was “could not detect any signs of apoptosis”. In the data set on Treg (Treg incubated with dopamine), the “Apoptotic cells (sub-G1), propidium iodide staining” value is on record as “No signs of apoptosis”. The “Adhesion of Teff to CSPG” value in data set [3] is “slight, nonsignificant effect”. For the same compound, the “Adhesion of Treg to CSPG” value in data set [3] (dopamine 10^−9-10^−5 M, concentration-dependent, agonist 10^−5 M) is “significantly decreased”.

These data come from US20100168085A1, “Dopamine and agonists and antagonists thereof for modulation of suppressive activity of CD4+CD25+ regulatory T cells” (YESA RESEARCH AND DEVELOPMENT CO. LTD. at the Weizmann …, priority 2003, published 2010).
